Measured values taken from ChEMBL document CHEMBL2157896, “Engineering pH-gated transitions for selective and efficient double-strand DNA photocleavage in hypoxic tumors” (J Med Chem, 2011).
The source made the active and inactive calls. The calls are words filed in the database; no cut-off is given here.

How the values were obtained:
Nucleic Acid [1] = experiment: Induction of photochemical DNA cleavage in Escherichia coli pBR322 assessed as form 3 level at 15 uM in pH 8.0 phosphate buffer measured after 6 mins of UV irradiation; assay type: nucleic-acid assay
Nucleic Acid [2] = experiment: Induction of photochemical DNA cleavage in Escherichia coli pBR322 assessed as form 2 level at 15 uM in pH 6.0 phosphate buffer measured after 6 mins of UV irradiation; assay type: nucleic-acid assay
Nucleic Acid [3] = experiment: Induction of photochemical DNA cleavage in Escherichia coli pBR322 assessed as form 3 level at 15 uM in pH 7.0 phosphate buffer measured after 6 mins of UV irradiation; assay type: nucleic-acid assay
Nucleic Acid [4] = experiment: Induction of photochemical DNA cleavage in Escherichia coli pBR322 assessed as form 2 level at 15 uM in pH 7.0 phosphate buffer measured after 10 mins of UV irradiation; assay type: nucleic-acid assay
Nucleic Acid [5] = experiment: Induction of photochemical DNA cleavage in Escherichia coli pBR322 assessed as form 3 level at 15 uM in pH 8.0 phosphate buffer measured after 1 min of UV irradiation; assay type: nucleic-acid assay
Nucleic Acid [6] = experiment: Induction of photochemical DNA cleavage in Escherichia coli pBR322 assessed as form I level at 15 uM in pH 7.0 phosphate buffer measured after 4 mins of UV irradiation; assay type: nucleic-acid assay
Nucleic Acid [7] = experiment: Induction of DNA cleavage in Escherichia coli pBR322 assessed as form3/form2 ratio at 15 uM at pH 6 to 9 after 10 mins of UV irradiation; assay type: nucleic-acid assay
Nucleic Acid [8] = experiment: Induction of photochemical DNA cleavage in Escherichia coli pBR322 assessed as form 3 level at 15 uM in pH 7.0 phosphate buffer measured after 4 mins of UV irradiation; assay type: nucleic-acid assay
Nucleic Acid [9] = experiment: Induction of photochemical DNA cleavage in Escherichia coli pBR322 assessed as form I level at 15 uM in pH 8.0 phosphate buffer measured after 4 mins of UV irradiation; assay type: nucleic-acid assay
Nucleic Acid [10] = experiment: Induction of photochemical DNA cleavage in Escherichia coli pBR322 assessed as form 2 level at 15 uM in pH 8.0 phosphate buffer measured after 4 mins of UV irradiation; assay type: nucleic-acid assay
Nucleic Acid [11] = experiment: Induction of photochemical DNA cleavage in Escherichia coli pBR322 assessed as disappearance of supercoiled DNA at 15 uM in pH 6.0 phosphate buffer after 10 mins of UV irradiation; assay type: nucleic-acid assay
Nucleic Acid [12] = experiment: Induction of DNA damage in human […] cells at 30 uM incubated for 3 hrs using cells exposed to UV irradiation for 4 to 24 hrs by single cell gel electrophoresis; assay type: cell-based; conditions: TDE = time-dependent effect
Nucleic Acid [13] = experiment: Induction of photochemical DNA cleavage in Escherichia coli pBR322 assessed as form 3 level at 15 uM in pH 7.0 phosphate buffer measured after 0.5 mins of UV irradiation; assay type: nucleic-acid assay
Nucleic Acid [14] = experiment: Induction of photochemical DNA cleavage in Escherichia coli pBR322 assessed as form 2 level at 15 uM in pH 7.0 phosphate buffer measured after 1 min of UV irradiation; assay type: nucleic-acid assay
Nucleic Acid [15] = experiment: Induction of photochemical DNA cleavage in Escherichia coli pBR322 assessed as form 3 level at 15 uM in pH 7.0 phosphate buffer measured after 10 mins of UV irradiation; assay type: nucleic-acid assay
Nucleic Acid [16] = experiment: Induction of photochemical DNA cleavage in Escherichia coli pBR322 assessed as form 3 level at 15 uM in pH 6.0 phosphate buffer measured after 0.5 mins of UV irradiation; assay type: nucleic-acid assay
Nucleic Acid [17] = experiment: Induction of photochemical DNA cleavage in Escherichia coli pBR322 assessed as form 2 level at 15 uM in pH 6.0 phosphate buffer measured after 8 mins of UV irradiation; assay type: nucleic-acid assay
Nucleic Acid [18] = experiment: Induction of photochemical DNA cleavage in Escherichia coli pBR322 assessed as form 2 level at 15 uM in pH 6.0 phosphate buffer measured after 2 mins of UV irradiation; assay type: nucleic-acid assay
Nucleic Acid [19] = experiment: Induction of photochemical DNA cleavage in Escherichia coli pBR322 assessed as form I level at 15 uM in pH 7.0 phosphate buffer measured after 0.5 mins of UV irradiation; assay type: nucleic-acid assay
Nucleic Acid [20] = experiment: Induction of DNA cleavage in Escherichia coli pBR322 at 15 uM in pH 6.0 phosphate buffer measured after of UV irradiation; assay type: nucleic-acid assay
Nucleic Acid [21] = experiment: Induction of photochemical DNA cleavage in Escherichia coli pBR322 assessed as form 3 level at 15 uM in pH 6.0 phosphate buffer measured after 10 mins of UV irradiation; assay type: nucleic-acid assay
Nucleic Acid [22] = experiment: Induction of photochemical DNA cleavage in Escherichia coli pBR322 assessed as form 3 level at 15 uM in pH 6.0 phosphate buffer measured after 4 mins of UV irradiation; assay type: nucleic-acid assay
Nucleic Acid [23] = experiment: Induction of photochemical DNA cleavage in Escherichia coli pBR322 assessed as form 2 level at 15 uM in pH 6.0 phosphate buffer measured after 10 mins of UV irradiation; assay type: nucleic-acid assay
Nucleic Acid [24] = experiment: Induction of photochemical DNA cleavage in Escherichia coli pBR322 assessed as form 3 level at 15 uM in pH 8.0 phosphate buffer measured after 10 mins of UV irradiation; assay type: nucleic-acid assay
Nucleic Acid [25] = experiment: Induction of photochemical DNA cleavage in Escherichia coli pBR322 assessed as form I level at 15 uM in pH 6.0 phosphate buffer measured after 8 mins of UV irradiation; assay type: nucleic-acid assay
Nucleic Acid [26] = experiment: Induction of photochemical DNA cleavage in Escherichia coli pBR322 assessed as form I level at 15 uM in pH 6.0 phosphate buffer measured after 4 mins of UV irradiation; assay type: nucleic-acid assay
Nucleic Acid [27] = experiment: Induction of photochemical DNA cleavage in Escherichia coli pBR322 assessed as form I level at 15 uM in pH 6.0 phosphate buffer measured after 6 mins of UV irradiation; assay type: nucleic-acid assay
Nucleic Acid [28] = experiment: Induction of photochemical DNA cleavage in Escherichia coli pBR322 assessed as form 3 level at 15 uM in pH 6.0 phosphate buffer measured after 8 mins of UV irradiation; assay type: nucleic-acid assay
Nucleic Acid [29] = experiment: Induction of photochemical DNA cleavage in Escherichia coli pBR322 assessed as form I level at 15 uM in pH 8.0 phosphate buffer measured after 1 min of UV irradiation; assay type: nucleic-acid assay
Nucleic Acid [30] = experiment: Induction of photochemical DNA cleavage in Escherichia coli pBR322 assessed as form 2 level at 15 uM in pH 6.0 phosphate buffer measured after 4 mins of UV irradiation; assay type: nucleic-acid assay
Nucleic Acid [31] = experiment: Induction of DNA cleavage in Escherichia coli pBR322 at 5 uM in pH 6.0 phosphate buffer measured after of UV irradiation; assay type: nucleic-acid assay
Nucleic Acid [32] = experiment: Induction of photochemical DNA cleavage in Escherichia coli pBR322 assessed as form I level at 15 uM in pH 8.0 phosphate buffer measured after 10 mins of UV irradiation; assay type: nucleic-acid assay
Nucleic Acid [33] = experiment: Induction of photochemical DNA cleavage in Escherichia coli pBR322 assessed as form 2 level at 15 uM in pH 7.0 phosphate buffer measured after 8 mins of UV irradiation; assay type: nucleic-acid assay
Nucleic Acid [34] = experiment: Induction of photochemical DNA cleavage in Escherichia coli pBR322 assessed as form I level at 15 uM in pH 6.0 phosphate buffer measured after 10 mins of UV irradiation; assay type: nucleic-acid assay
Nucleic Acid [35] = experiment: Induction of DNA damage in human […] cells at 30 uM incubated for 3 hrs using cells exposed to UV irradiation for 20 mins by single cell gel electrophoresis; assay type: cell-based

NCCCC[C@H](N)C(=O)NCCCC[C@H](N)C(=O)Nc1ccc(C#Cc2c(F)c(F)nc(F)c2F)cc1.O=C(O)C(F)(F)F
Activity (Nucleic Acid [1]): 0% | Activity (Nucleic Acid [2]): 48.1% | Activity (Nucleic Acid [3]): 28.1% | Activity (Nucleic Acid [4]): 47.8% | Activity (Nucleic Acid [5]): 0% | Activity (Nucleic Acid [6]): 22.6% | Ratio (Nucleic Acid [7]): 2 | Activity (Nucleic Acid [8]): 25% | Activity (Nucleic Acid [9]): 58.6% | Activity (Nucleic Acid [10]): 41.4% | Activity (Nucleic Acid [11]): Active | Activity (Nucleic Acid [12]): tde | Activity (Nucleic Acid [13]): 0% | Activity (Nucleic Acid [14]): 47.3% | Activity (Nucleic Acid [15]): 40.5% | Activity (Nucleic Acid [16]): 13.5% | Activity (Nucleic Acid [17]): 35% | Activity (Nucleic Acid [18]): 54.2% | Activity (Nucleic Acid [19]): 64.6% | Activity (Nucleic Acid [20]): 159% | Activity (Nucleic Acid [21]): 78.7% | Activity (Nucleic Acid [22]): 34.9% | Activity (Nucleic Acid [23]): 21.3% | Activity (Nucleic Acid [24]): 21.3% | Activity (Nucleic Acid [25]): 0% | Activity (Nucleic Acid [26]): 0% | Activity (Nucleic Acid [27]): 0% | Activity (Nucleic Acid [28]): 65% | Activity (Nucleic Acid [29]): 83.9% | Activity (Nucleic Acid [30]): 65.1% | Activity (Nucleic Acid [31]): 50% | Activity (Nucleic Acid [32]): 26.3% | Activity (Nucleic Acid [33]): 51% | Activity (Nucleic Acid [34]): 0% | Activity (Nucleic Acid [35]): Active
